# Assay results published in patent US11206830B2, “Herbicidal composition comprising glufosinate or a salt thereof and pyroxasulfone” (BASF SE, priority 2008, dated 2021).
# Where “and” joins values, the source holds several entries; their conditions need not be identical. Equal values may be shown once. Read-outs that look alike come from different tables or passages of the source.
# What was measured:
# Format in all cases: in vivo
# [1] = tested on: Alopecurus myosuroides (ALOMY); assay: greenhouse post-emergence herbicidal activity on ALOMY
# Excerpt: (§1) For the post-emergence treatment, the test plants were first grown to a height of 3 to 20 cm, depending on the plant habit, and only then treated. Here, the herbicidal compositions were suspended or emulsified in water as distribution medium and sprayed using finely distributing nozzles.
# (§2) The respective herbicides B and/or safener were formulated as 10% by weight strength suspension concentrate and introduced to the spray liquor with the amount of solvent system used for applying the active compound. Herbicides A, C and/or safener were used as commercially available formulations and introduced to the spray liquor with the amount of solvent system used for applying the active compound. In the examples, the solvent used was water.
# (§3) The test period extended over 21 days. During this time, the plants were tended, and their response to the treatments with active compound was evaluated.
# (§4) The evaluation for the damage caused by the chemical compositions was carried out using a scale from 0 to 100%, compared to the untreated control plants. Here, 0 means no damage and 100 means complete destruction of the plants.
# (§5) The value E, which is to be expected if the activity of the individual compounds is just additive, was calculated using the method of S. R. Colby (1967) “Calculating synergistic and antagonistic responses of herbicide combinations”, Weeds 15, p. 22 ff. For two component mixtures the value E was calculated by the following formula E=X+Y−(X·Y/100)
# (§6) For three component mixtures the value E was calculated by the following formula E=X+Y+Z−(XY+XZ+YZ)/100+(X·YZ/10000) where X=effect in percent using herbicide A at an application rate a; • Y=effect in percent using herbicide B at an application rate b; • Z=effect in percent using herbicide C at an application rate c; • E=expected effect (in %) of A+B at application rates a+b. or • E=expected effect (in %) of A+B+C at application rates a+b+c.
# (§7) If the value observed in this manner is higher than the value E calculated according to Colby, a synergistic effect is present.
# (§8) Tables 1 to 12 relate to the herbicidal activity of the individual actives and of their combinations in post-emergence application assessed 20 DAT.
# [2] = tested on: Digitaria sanguinalis (DIGSA); assay: greenhouse post-emergence herbicidal activity on DIGSA
# Excerpt: as §1, §2, §3, §4, §5, §6, §7, §8
# [3] = tested on: Lolium multiflorum (LOLMU); assay: greenhouse post-emergence herbicidal activity on LOLMU
# Excerpt: as §1, §2, §3, §4, §5, §6, §7, §8
# [4] = tested on: Abutilon theophrasti (ABUTH); assay: greenhouse post-emergence herbicidal activity on ABUTH
# Excerpt: as §1, §2, §3, §4, §5, §6, §7, §8
# [5] = tested on: Chenopodium album (CHEAL); assay: greenhouse post-emergence herbicidal activity on CHEAL
# Excerpt: as §1, §2, §3, §4, §5, §6, §7, §8
# [6] = tested on: Galium aparine (GALAP); assay: greenhouse post-emergence herbicidal activity on GALAP; details: solo application
# Excerpt: as §1, §2, §3, §4, §5, §6, §7, §8
# [7] = tested on: Matricaria inermis (MATIN); assay: greenhouse post-emergence herbicidal activity on MATIN
# Excerpt: as §1, §2, §3, §4, §5, §6, §7, §8
# [8] = tested on: Setaria viridis (SETVI); assay: greenhouse post-emergence herbicidal activity on SETVI; details: 480 h, read-out: % activity 20 DAT
# Excerpt: as §1, §2, §3
# (§9) The evaluation for the damage caused by the chemical compositions was carried out using a scale from 0 to 100%, compared to the untreated control plants. […]
# (§10) The value E, which is to be expected if the activity of the individual compounds is just additive, was calculated using the method of S. R. Colby (1967) “Calculating synergistic and antagonistic responses of herbicide combinations”, Weeds 15, p. […] For two component mixtures the value E was calculated by the following formula E=X+Y−(X·Y/100)
# as §6, §7, §8
# [9] = tested on: Amaranthus retroflexus (AMARE); assay: greenhouse post-emergence herbicidal activity on AMARE; details: 480 h, read-out: % activity 20 DAT
# Excerpt: as §1, §2, §3, §9, §10, §6, §7, §8
# [10] = tested on: Sinapis arvensis (SINAR); assay: greenhouse post-emergence herbicidal activity on SINAR; details: Mutarda arvensis, 480 h, read-out: % activity 20 DAT
# Excerpt: as §1, §2, §3, §9, §10, §6, §7, §8
# [11] = tested on: Polygonum convolvulus (POLCO); assay: greenhouse post-emergence herbicidal activity on POLCO
# Excerpt: as §1, §2, §3, §4, §5, §6, §7, §8
# [12] = tested on: Avena fatua (AVEFA); assay: greenhouse post-emergence herbicidal activity on AVEFA; details: 480 h, read-out: % activity 20 DAT
# Excerpt: as §1, §2, §3, §4, §5, §6, §7, §8
# [13] = tested on: Echinochloa crus-galli (ECHCG); assay: greenhouse post-emergence herbicidal activity on ECHCG
# Excerpt: as §1, §2, §3, §9, §10, §6, §7, §8
# [14] = Digitaria sanguinalis, 480 h, read-out: % activity 20 DAT
# [15] = Fallopia convolvulus, 480 h, read-out: % activity 20 DAT
compound,measurement,setting,value
"O=C(O)CNCP(=O)(O)O [glyphosate, N-(phosphonomethyl)glycine]",inhibition at 50 g/ha,"[1]; Alopecurus myosuroides, 480 h, read-out: % activity 20 DAT, post-emergence, solo application, 50 g ai/ha",20%
same,inhibition at 100 g/ha,"[1]; Alopecurus myosuroides, 480 h, read-out: % activity 20 DAT, post-emergence, solo application, 100 g ai/ha",40%
same,inhibition at 200 g/ha,"[1]; Alopecurus myosuroides, 480 h, read-out: % activity 20 DAT, post-emergence, solo application, 200 g ai/ha",85%
same,% activity 20 DAT,"[1]; solo application, 50 g ai/ha",15%
same,% activity 20 DAT,"[1]; solo application, 100 g ai/ha",30%
same,inhibition at 50 g/ha,[2]; [14],70%
same,inhibition at 100 g/ha,[2]; [14],85%
same,inhibition at 50 g/ha,"[3]; Lolium multiflorum, 480 h, read-out: % activity 20 DAT, post-emergence, solo application, 50 g ai/ha",40%
same,inhibition at 100 g/ha,"[3]; Lolium multiflorum, 480 h, read-out: % activity 20 DAT, post-emergence, solo application, 100 g ai/ha",75%
same,% activity 20 DAT,"[3]; solo application, 50 g ai/ha",45%
same,inhibition at 50 g/ha,"[4]; Abutilon theophrasti, 480 h, read-out: % activity 20 DAT, post-emergence, solo application, 50 g ai/ha",0%
same,inhibition at 200 g/ha,"[4]; Abutilon theophrasti, 480 h, read-out: % activity 20 DAT, post-emergence, solo application, 200 g ai/ha",70%
same,inhibition at 50 g/ha,"[5]; Chenopodium album, 480 h, read-out: % activity 20 DAT, post-emergence, solo application, 50 g ai/ha",40%
same,inhibition at 200 g/ha,"[5]; Chenopodium album, 480 h, read-out: % activity 20 DAT, post-emergence, solo application, 200 g ai/ha",80%
same,% activity 20 DAT,"[5]; solo application, 50 g ai/ha",30%
same,% activity 20 DAT,"[5]; solo application, 100 g ai/ha",50% and 85%
same,% activity 20 DAT,[6]; 50 g ai/ha,10%
same,inhibition at 100 g/ha,"[7]; Matricaria, 480 h, read-out: % activity 20 DAT, post-emergence, solo application, 100 g ai/ha",90%
same,inhibition at 400 g/ha,"[7]; Matricaria, 480 h, read-out: % activity 20 DAT, post-emergence, solo application, 400 g ai/ha",95%
same,% activity 20 DAT,"[7]; solo application, 50 g ai/ha",65%
same,inhibition at 50 g/ha,[8],70%
same,inhibition at 50 g/ha,[9],90%
same,inhibition at 50 g/ha,[10],80%
same,inhibition at 50 g/ha,[11]; [15],30%
same,inhibition at 100 g/ha,[11]; [15],50%
same,inhibition at 200 g/ha,[11]; [15],50%
same,inhibition at 400 g/ha,[11]; [15],90%
same,inhibition at 100 g/ha,[12],45%
same,inhibition at 50 g/ha,"[13]; Echinochloa crus-galli, 480 h, read-out: % activity 20 DAT",30%
"Cn1nc(C(F)(F)F)c(CS(=O)(=O)C2=NOC(C)(C)C2)c1OC(F)F [pyroxasulfone, 3-[5-(difluoromethoxy)-1-methyl-3-(trifluoromethyl)pyrazol-4-ylmethylsulfonyl]-4,5-dihydro-5,5-dimethyl-1,2-oxazole]",inhibition at 12.5 g/ha,"[1]; Alopecurus myosuroides, 480 h, solo application, 12.5 g ai/ha, read-out: % activity 20 DAT",30%
same,inhibition at 25 g/ha,"[1]; Alopecurus myosuroides, 480 h, solo application, 25 g ai/ha, read-out: % activity 20 DAT",50%
same,inhibition at 50 g/ha,"[1]; Alopecurus myosuroides, 480 h, solo application, 50 g ai/ha, read-out: % activity 20 DAT",50%
same,% activity 20 DAT,"[1]; solo application, 12.5 g ai/ha",40%
same,% activity 20 DAT,"[1]; solo application, 25 g ai/ha",70%
same,inhibition at 12.5 g/ha,"[2]; Digitaria sanguinalis, 480 h, solo application, 12.5 g ai/ha, read-out: % activity 20 DAT",40%
same,inhibition at 25 g/ha,"[2]; Digitaria sanguinalis, 480 h, solo application, 25 g ai/ha, read-out: % activity 20 DAT",50%
same,inhibition at 12.5 g/ha,"[3]; Lolium multiflorum, 480 h, solo application, 12.5 g ai/ha, read-out: % activity 20 DAT",50%
same,inhibition at 25 g/ha,"[3]; Lolium multiflorum, 480 h, solo application, 25 g ai/ha, read-out: % activity 20 DAT",50%
same,% activity 20 DAT,"[3]; solo application, 12.5 g ai/ha",55%
same,inhibition at 12.5 g/ha,"[4]; Abutilon theophrasti, 480 h, solo application, 12.5 g ai/ha, read-out: % activity 20 DAT",40%
same,inhibition at 50 g/ha,"[4]; Abutilon theophrasti, 480 h, solo application, 50 g ai/ha, read-out: % activity 20 DAT",70%
same,% activity 20 DAT,"[4]; solo application, 12.5 g ai/ha",60%
same,% activity 20 DAT,"[4]; solo application, 25 g ai/ha",65%
same,inhibition at 12.5 g/ha,"[5]; Chenopodium album, 480 h, solo application, 12.5 g ai/ha, read-out: % activity 20 DAT",20%
same,inhibition at 50 g/ha,"[5]; Chenopodium album, 480 h, solo application, 50 g ai/ha, read-out: % activity 20 DAT",20%
same,% activity 20 DAT,"[5]; solo application, 12.5 g ai/ha",35%
same,inhibition at 25 g/ha,"[6]; Galium aparine, 480 h, 25 g ai/ha, read-out: % activity 20 DAT",80%
same,% activity 20 DAT,[6]; 12.5 g ai/ha,70% and 40%
same,% activity 20 DAT,[6]; 25 g ai/ha,85%
same,inhibition at 12.5 g/ha,"[7]; Matricaria, 480 h, solo application, 12.5 g ai/ha, read-out: % activity 20 DAT",0%
same,inhibition at 25 g/ha,"[7]; Matricaria, 480 h, solo application, 25 g ai/ha, read-out: % activity 20 DAT",0%
same,inhibition at 100 g/ha,"[7]; Matricaria, 480 h, solo application, 100 g ai/ha, read-out: % activity 20 DAT",15%
same,inhibition at 12.5 g/ha,"[8]; solo application, 12.5 g ai/ha",70%
same,inhibition at 12.5 g/ha,"[9]; solo application, 12.5 g ai/ha",75%
same,inhibition at 12.5 g/ha,"[10]; solo application, 12.5 g ai/ha",65%
same,inhibition at 12.5 g/ha,"[11]; Fallopia convolvulus, 480 h, solo application, 12.5 g ai/ha, read-out: % activity 20 DAT",35%
same,inhibition at 25 g/ha,"[11]; Fallopia convolvulus, 480 h, solo application, 25 g ai/ha, read-out: % activity 20 DAT",50%
same,inhibition at 50 g/ha,"[11]; Fallopia convolvulus, 480 h, solo application, 50 g ai/ha, read-out: % activity 20 DAT",50%
same,inhibition at 100 g/ha,"[11]; Fallopia convolvulus, 480 h, solo application, 100 g ai/ha, read-out: % activity 20 DAT",65%
same,inhibition at 25 g/ha,"[12]; solo application, 25 g ai/ha",75%
same,inhibition at 12.5 g/ha,"[13]; Echinochloa crus-galli, 480 h, solo application, 12.5 g ai/ha, read-out: % activity 20 DAT",75%
CC(C)N(C)S(=O)(=O)NC(=O)c1cc(-n2c(=O)cc(C(F)(F)F)n(C)c2=O)c(F)cc1Cl [saflufenacil],% activity 20 DAT,"[1]; solo application, 1.56 g ai/ha",0%
same,% activity 20 DAT,"[1]; solo application, 3.13 g ai/ha",0%
same,% activity 20 DAT,"[2]; solo application, 1.56 g ai/ha",0%
same,% activity 20 DAT,"[4]; solo application, 1.56 g ai/ha",45%
same,% activity 20 DAT,"[5]; solo application, 1.56 g ai/ha",40%
same,% activity 20 DAT,[6]; 3.13 g ai/ha,30%
same,% activity 20 DAT,"[7]; solo application, 1.56 g ai/ha",20%
same,% activity 20 DAT,"[7]; solo application, 3.13 g ai/ha",55%
same,% activity 20 DAT,"[11]; solo application, 1.56 g ai/ha",45%
same,% activity 20 DAT,"[11]; solo application, 3.13 g ai/ha",55%
same,% activity 20 DAT,"[13]; solo application, 1.56 g ai/ha",0%
